A short description of the data set: In vivo oral gavage of KPT-330 every other day for two weeks: body weight. Details: species or system C57BL/6 wild-type mice. The method, then: Following a similar protocol as previously reported for SINE treatment in the context of cancer (Arango et al., 2017; Azmi et al., 2013; Hing et al., 2016; Zheng et al., 2014), KPT-330 was administered at a dose 10 mg/kg via oral gavage every other day over a two-week span in C57BL/6 wild-type mice, and body weight was monitored for any clear toxicity. […] Given animal weight loss on the standard chemotherapeutic dosage regimen, and additional evidence that sustained dosage of SINEs adversely impacts T cell populations (Tyler et al., 2017), Applicants sought to explore dosing regimens well below 10 mg/kg, to see if a pro-Paneth phenotype may exist below potential toxicities. […] Applicants tracked animal weight every other day, and at day 14 collected the proximal and distal thirds of the small intestine for histological quantification of Paneth, stem, and goblet populations (FIG. 26A). […] Paneth cells were counted within well preserved crypts, with at minimum 30 crypts quantified per animal (representative images FIG. 30C) and then averaged to get mean Paneth cells per crypt in distal and proximal thirds of the small intestine. […] Applicants additionally quantified the abundance of Olfm4+ stem cells as well as PAS+ goblet cells within the same animals to ascertain whether the effect of SINE treatment was restricted to the Paneth cell compartment (representative images FIG. 30D,E). […]

SMILES strings stand for the structures.

Turning to `O=C(/C=C\n1cnc(-c2cc(C(F)(F)F)cc(C(F)(F)F)c2)n1)NNc1cnccn1` [KPT-330], the body weight result is given as “no significant changes in animal weight at any dose” (0.01, 0.05 or 0.2 mg/kg oral gavage every other day) and “significant weight loss indicative of toxicity” (10 mg/kg oral gavage every other day).

The record behind these values is patent publication US20230398130A1, “METHODS AND COMPOSITIONS FOR DIFFERENTIATING STEM CELLS” (Massachusetts Institute of Technology, priority 2020, published 2023).
